Reference: paper PMC11576293, “New series of 4,6-diaryl pyrimidines: facile synthesis and antiproliferative activity as dual EGFR/VEGFR-2 inhibitors” (Frontiers in Chemistry, 2024)

Experiments:
SN12C = assay: NCI-60 single-dose screen; format: cell-based; conditions: Homo sapiens, single dose 10 µM, '-' = no inhibition, read-out: % Growth Inhibition
How it was run: (§1)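 NCI DTP single-dose screen; 10 μM compound; 60-line panel, nine cancer types.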

NCI-H23 = assay: NCI-60 single-dose screen; format: cell-based; conditions: Homo sapiens, single dose 10 µM, '-' = no inhibition, read-out: % Growth Inhibition
How it was run: as §1

UACC-257 = assay: NCI-60 single-dose screen; format: cell-based; conditions: Homo sapiens, single dose 10 µM, '-' = no inhibition, read-out: % Growth Inhibition
How it was run: as §1

UACC-62 = assay: NCI-60 single-dose screen; format: cell-based; conditions: Homo sapiens, single dose 10 µM, '-' = no inhibition, read-out: % Growth Inhibition
How it was run: as §1

MDA-MB-435 = assay: NCI-60 single-dose screen; format: cell-based; conditions: Homo sapiens, single dose 10 µM, '-' = no inhibition, read-out: % Growth Inhibition
How it was run: as §1

ACHN 1 = assay: NCI-60 single-dose screen; format: cell-based; conditions: Homo sapiens, single dose 10 µM, '-' = no inhibition, read-out: % Growth Inhibition
How it was run: as §1

MDA-MB-468 = assay: NCI-60 single-dose screen; format: cell-based; conditions: Homo sapiens, single dose 10 µM, '-' = no inhibition, read-out: % Growth Inhibition
How it was run: as §1

PC-3 = assay: NCI-60 single-dose screen; format: cell-based; conditions: Homo sapiens, single dose 10 µM, '-' = no inhibition, read-out: % Growth Inhibition
How it was run: as §1

RXF 393 = assay: NCI-60 single-dose screen; format: cell-based; conditions: Homo sapiens, single dose 10 µM, '-' = no inhibition, read-out: % Growth Inhibition
How it was run: as §1

MOLT-4 = assay: NCI-60 single-dose screen; format: cell-based; conditions: Homo sapiens, single dose 10 µM, '-' = no inhibition, read-out: % Growth Inhibition
How it was run: as §1

SF-539 = assay: NCI-60 single-dose screen; format: cell-based; conditions: Homo sapiens, single dose 10 µM, '-' = no inhibition, read-out: % Growth Inhibition
How it was run: as §1

RPMI-8226 = assay: NCI-60 single-dose screen; format: cell-based; conditions: Homo sapiens, single dose 10 µM, '-' = no inhibition, read-out: % Growth Inhibition
How it was run: as §1

OVCAR-8 = assay: NCI-60 single-dose screen; format: cell-based; conditions: Homo sapiens, single dose 10 µM, '-' = no inhibition, read-out: % Growth Inhibition
How it was run: as §1

KM12 = assay: NCI-60 single-dose screen; format: cell-based; conditions: Homo sapiens, single dose 10 µM, '-' = no inhibition, read-out: % Growth Inhibition
How it was run: as §1

HT29 = assay: NCI-60 single-dose screen; format: cell-based; conditions: Homo sapiens, HT-29, single dose 10 µM, '-' = no inhibition, read-out: % Growth Inhibition
How it was run: as §1

SW-620 = assay: NCI-60 single-dose screen; format: cell-based; conditions: Homo sapiens, single dose 10 µM, '-' = no inhibition, read-out: % Growth Inhibition
How it was run: as §1

BT-549 = assay: NCI-60 single-dose screen; format: cell-based; conditions: Homo sapiens, single dose 10 µM, '-' = no inhibition, read-out: % Growth Inhibition
How it was run: as §1

SNB-19 = assay: NCI-60 single-dose screen; format: cell-based; conditions: Homo sapiens, single dose 10 µM, '-' = no inhibition, read-out: % Growth Inhibition
How it was run: as §1

DU-145 = assay: NCI-60 single-dose screen; format: cell-based; conditions: Homo sapiens, single dose 10 µM, '-' = no inhibition, read-out: % Growth Inhibition
How it was run: as §1

NCI-H460 = assay: NCI-60 single-dose screen; format: cell-based; conditions: Homo sapiens, single dose 10 µM, '-' = no inhibition, read-out: % Growth Inhibition
How it was run: as §1

NCI-H322M = assay: NCI-60 single-dose screen; format: cell-based; conditions: Homo sapiens, single dose 10 µM, '-' = no inhibition, read-out: % Growth Inhibition
How it was run: as §1

NCI/ADR-RES = assay: NCI-60 single-dose screen; format: cell-based; conditions: Homo sapiens, single dose 10 µM, '-' = no inhibition, read-out: % Growth Inhibition
How it was run: as §1

CCRF-CEM = assay: NCI-60 single-dose screen; format: cell-based; conditions: Homo sapiens, single dose 10 µM, '-' = no inhibition, read-out: % Growth Inhibition
How it was run: as §1

SK-MEL-28 = assay: NCI-60 single-dose screen; format: cell-based; conditions: Homo sapiens, single dose 10 µM, '-' = no inhibition, read-out: % Growth Inhibition
How it was run: as §1

OVCAR-3 = assay: NCI-60 single-dose screen; format: cell-based; conditions: Homo sapiens, single dose 10 µM, '-' = no inhibition, read-out: % Growth Inhibition
How it was run: as §1

MCF7 = assay: NCI-60 single-dose screen; format: cell-based; conditions: Homo sapiens, single dose 10 µM, '-' = no inhibition, read-out: % Growth Inhibition
How it was run: as §1

TK-10 = assay: NCI-60 single-dose screen; format: cell-based; conditions: Homo sapiens, single dose 10 µM, '-' = no inhibition, read-out: % Growth Inhibition
How it was run: as §1

M14 = assay: NCI-60 single-dose screen; format: cell-based; conditions: Homo sapiens, single dose 10 µM, '-' = no inhibition, read-out: % Growth Inhibition
How it was run: as §1

HCT-15 = assay: NCI-60 single-dose screen; format: cell-based; conditions: Homo sapiens, single dose 10 µM, '-' = no inhibition, read-out: % Growth Inhibition
How it was run: as §1

SF-295 = assay: NCI-60 single-dose screen; format: cell-based; conditions: Homo sapiens, single dose 10 µM, '-' = no inhibition, read-out: % Growth Inhibition
How it was run: as §1

SR = assay: NCI-60 single-dose screen; format: cell-based; conditions: Homo sapiens, single dose 10 µM, '-' = no inhibition, read-out: % Growth Inhibition
How it was run: as §1

EKVX = assay: NCI-60 single-dose screen; format: cell-based; conditions: Homo sapiens, single dose 10 µM, '-' = no inhibition, read-out: % Growth Inhibition
How it was run: as §1

IGROV1 = assay: NCI-60 single-dose screen; format: cell-based; conditions: Homo sapiens, IGROV-1, single dose 10 µM, '-' = no inhibition, read-out: % Growth Inhibition
How it was run: as §1

HCC-2998 = assay: NCI-60 single-dose screen; format: cell-based; conditions: Homo sapiens, single dose 10 µM, '-' = no inhibition, read-out: % Growth Inhibition
How it was run: as §1

MALME-3M = assay: NCI-60 single-dose screen; format: cell-based; conditions: Homo sapiens, single dose 10 µM, '-' = no inhibition, read-out: % Growth Inhibition
How it was run: as §1

NCI-H522 = assay: NCI-60 single-dose screen; format: cell-based; conditions: Homo sapiens, single dose 10 µM, '-' = no inhibition, read-out: % Growth Inhibition
How it was run: as §1

MDA-MB231/ATCC = assay: NCI-60 single-dose screen; format: cell-based; conditions: Homo sapiens, MDA-MB-231, single dose 10 µM, '-' = no inhibition, read-out: % Growth Inhibition
How it was run: as §1

CAKI-1 = assay: NCI-60 single-dose screen; format: cell-based; conditions: Homo sapiens, single dose 10 µM, '-' = no inhibition, read-out: % Growth Inhibition
How it was run: as §1

UO-31 = assay: NCI-60 single-dose screen; format: cell-based; conditions: Homo sapiens, single dose 10 µM, '-' = no inhibition, read-out: % Growth Inhibition
How it was run: as §1

SNB-75 = assay: NCI-60 single-dose screen; format: cell-based; conditions: Homo sapiens, single dose 10 µM, '-' = no inhibition, read-out: % Growth Inhibition
How it was run: as §1

K-562 = assay: NCI-60 single-dose screen; format: cell-based; conditions: Homo sapiens, K562, single dose 10 µM, '-' = no inhibition, read-out: % Growth Inhibition
How it was run: as §1

SK-MEL-2 = assay: NCI-60 single-dose screen; format: cell-based; conditions: Homo sapiens, single dose 10 µM, '-' = no inhibition, read-out: % Growth Inhibition
How it was run: as §1

SF-268 = assay: NCI-60 single-dose screen; format: cell-based; conditions: Homo sapiens, single dose 10 µM, '-' = no inhibition, read-out: % Growth Inhibition
How it was run: as §1

A498 = assay: NCI-60 single-dose screen; format: cell-based; conditions: Homo sapiens, single dose 10 µM, '-' = no inhibition, read-out: % Growth Inhibition
How it was run: as §1

SK-OV-3 = assay: NCI-60 single-dose screen; format: cell-based; conditions: Homo sapiens, single dose 10 µM, '-' = no inhibition, read-out: % Growth Inhibition
How it was run: as §1

LOX IMVI = assay: NCI-60 single-dose screen; format: cell-based; conditions: Homo sapiens, single dose 10 µM, '-' = no inhibition, read-out: % Growth Inhibition
How it was run: as §1

HL-60(TB) = assay: NCI-60 single-dose screen; format: cell-based; conditions: Homo sapiens, single dose 10 µM, '-' = no inhibition, read-out: % Growth Inhibition

Q: For `COc1ccc(-c2cc(-c3cccc(OC)c3)nc(SC)n2)cc1` [Compound 16, 6-(3-Methoxyphenyl)-4-(4-methoxyphenyl)-2-(methylthio)pyrimidine], which inhibition at 10 µM (SN12C) is on record?
A: 17.9%

Q: And the inhibition at 10 µM (NCI-H23)?
A: 2.58%

Q: What about the inhibition at 10 µM (UACC-257) of the same molecule?
A: < 0%

Q: And the inhibition at 10 µM (UACC-62)?
A: 23.9%

Q: What about the inhibition at 10 µM (MDA-MB-435) of the same molecule?
A: 6.06%

Q: What about the inhibition at 10 µM (ACHN 1) of the same molecule?
A: < 0%

Q: And the inhibition at 10 µM (MDA-MB-468)?
A: 17.4%

Q: And the inhibition at 10 µM (PC-3)?
A: 16.6%

Q: What about the inhibition at 10 µM (RXF 393) of the same molecule?
A: 11.6%

Q: And the inhibition at 10 µM (MOLT-4)?
A: 19.9%

Q: What about the inhibition at 10 µM (SF-539) of the same molecule?
A: < 0%

Q: What about the inhibition at 10 µM (RPMI-8226) of the same molecule?
A: 3.81%

Q: What about the inhibition at 10 µM (OVCAR-8) of the same molecule?
A: 6.48%

Q: What about the inhibition at 10 µM (KM12) of the same molecule?
A: 6.2%

Q: What about the inhibition at 10 µM (HT29) of the same molecule?
A: 26.2%

Q: And the inhibition at 10 µM (SW-620)?
A: 1.89%

Q: And the inhibition at 10 µM (BT-549)?
A: 3.3%

Q: And the inhibition at 10 µM (SNB-19)?
A: < 0%

Q: And the inhibition at 10 µM (DU-145)?
A: 6.56%

Q: And the inhibition at 10 µM (NCI-H460)?
A: 1.75%

Q: And the inhibition at 10 µM (NCI-H322M)?
A: < 0%

Q: And the inhibition at 10 µM (NCI/ADR-RES)?
A: 11.6%

Q: And the inhibition at 10 µM (CCRF-CEM)?
A: 8.85%

Q: What about the inhibition at 10 µM (SK-MEL-28) of the same molecule?
A: < 0%

Q: What about the inhibition at 10 µM (OVCAR-3) of the same molecule?
A: < 0%

Q: What about the inhibition at 10 µM (MCF7) of the same molecule?
A: 11.3%

Q: And the inhibition at 10 µM (TK-10)?
A: < 0%

Q: And the inhibition at 10 µM (M14)?
A: < 0%

Q: And the inhibition at 10 µM (HCT-15)?
A: 19.5%

Q: And the inhibition at 10 µM (SF-295)?
A: 4.05%

Q: And the inhibition at 10 µM (SR)?
A: 27.7%

Q: And the inhibition at 10 µM (EKVX)?
A: 21.7%

Q: What about the inhibition at 10 µM (IGROV1) of the same molecule?
A: < 0%

Q: What about the inhibition at 10 µM (HCC-2998) of the same molecule?
A: < 0%

Q: And the inhibition at 10 µM (MALME-3M)?
A: < 0%

Q: What about the inhibition at 10 µM (NCI-H522) of the same molecule?
A: 14.1%

Q: And the inhibition at 10 µM (MDA-MB231/ATCC)?
A: 11%

Q: And the inhibition at 10 µM (CAKI-1)?
A: 20.8%

Q: And the inhibition at 10 µM (UO-31)?
A: 20%

Q: What about the inhibition at 10 µM (SNB-75) of the same molecule?
A: < 0%

Q: What about the inhibition at 10 µM (K-562) of the same molecule?
A: 26.9%

Q: What about the inhibition at 10 µM (SK-MEL-2) of the same molecule?
A: 2.91%

Q: What about the inhibition at 10 µM (SF-268) of the same molecule?
A: 15.7%

Q: What about the inhibition at 10 µM (A498) of the same molecule?
A: < 0%

Q: What about the inhibition at 10 µM (SK-OV-3) of the same molecule?
A: 13.7%

Q: What about the inhibition at 10 µM (LOX IMVI) of the same molecule?
A: 0.51%

Q: What about the inhibition at 10 µM (HL-60(TB)) of the same molecule?
A: 22.2%

Q: And the melting point?
A: 213 to 215 °C
